Experimental findings from US20230139826A1 (NONO INC., priority 2020, published 2023) are described below.

Data set [1] can be described thus: rat plasma in the absence of alteplase. The following applies: Rat Sprague Dawley, 37° C., up to 45 min.
The nature of data set [2]: human plasma in the absence of alteplase. As to conditions: 37° C., up to 45 min.
The subject of another data set is plasmin (10 ug/mL). Briefly: PBS during a challenge with plasmin (10 ug/mL). The following applies: 37° C.
For data set [3], the system named is rt-PA (alteplase) (135 ug/ml). The data set can be described thus: PBS during a challenge with rt-PA (135 ug/ml). As to conditions: 37° C.
Data set [4] concerns rt-PA (alteplase) 135 ug/ml. The data set can be described thus: rat plasma during a challenge with rt-PA (135 ug/ml). The following applies: Rat Sprague Dawley, 37° C., up to 45 min.
Data set [5] relates to rt-PA (alteplase) 135 ug/ml. The data set can be described thus: human plasma during a challenge with rt-PA (135 ug/ml). The following applies: 37° C., up to 45 min.
Data set [6] deals with tenecteplase (TNK) 37.5 ug/ml. The data set can be described thus: rat plasma during a challenge with tenecteplase (TNK; 37.5 ug/ml). As to conditions: Rat Sprague Dawley.
The test system of data set [7] is tenecteplase (TNK) 6.25 ug/ml. The data set can be described thus: human plasma during a challenge with tenecteplase (TNK; 6.25 ug/ml).

As for ygrkkrrqrrrKLSSIESDV, the not cleaved entry is on record as “stable” in data set [1]; “stable” in data set [2]; “no significant degradation” in the data set on plasmin (10 ug/mL); “not affected by co-incubation with alteplase” in data set [3]; “no rapid degradation on addition of alteplase” in data set [4]; “no rapid degradation on addition of alteplase” in data set [5]. Moreover, the not cleaved result in data set [6] and in data set [7] was “no rapid elimination on addition of TNK” each time.
